Results reported in ChEMBL document CHEMBL3792379, “Synthesis and biological evaluation of aryloxyacetamide derivatives as neuroprotective agents” (2016).
Activity calls are given as the source filed them. The rule behind the calls is not given here.

Legend:
[1] = (§1) Neuroprotective activity against glutamate-induced cell death in rat PC12 cells assessed as cell viability at 0.1 uM after 24 hrs by MTT assay; assay type: functional; conditions: PC-12, 24 h, read-out: Activity
[2] = (§2) Neuroprotective activity against glutamate-induced cell death in rat PC12 cells assessed as cell viability at 1 uM after 24 hrs by MTT assay; assay type: functional; conditions: PC-12, 24 h, read-out: Activity
[3] = (§3) Neuroprotective activity against glutamate-induced cell death in rat PC12 cells assessed as cell viability at 10 uM after 24 hrs by MTT assay; assay type: functional; conditions: PC-12, 24 h, read-out: Activity
PC-12 [4] = assay: Neuroprotective activity against glutamate-induced cell death in rat PC12 cells assessed as cell viability after 24 hrs by MTT assay; assay type: functional, cell-based
PC-12 [5] = assay: Neuroprotective activity against glutamate-induced apoptosis in rat PC12 cells assessed as decrease in caspase-3 level after 24 hrs by western blot analysis; assay type: functional, cell-based
PC-12 [6] = assay: Neuroprotective activity against glutamate-induced apoptosis in rat PC12 cells at 10 uM after 24 hrs by hoechst 33342 and propidium iodide double staining based fluorescence analysis (reference value: 43.97 +/- 2.69%); assay type: functional
PC-12 [7] = assay: Neuroprotective activity against glutamate-induced apoptosis in rat PC12 cells assessed as procaspase-3 level at 0.1 to 10 uM after 24 hrs by western blot analysis; assay type: functional, cell-based
PC-12 [8] = assay: Neuroprotective activity against glutamate-induced apoptosis in rat PC12 cells at 0.1 uM after 24 hrs by hoechst 33342 and propidium iodide double staining based fluorescence analysis (reference value: 43.97 +/- 2.69%); assay type: functional
PC-12 [9] = assay: Neuroprotective activity against glutamate-induced apoptosis in rat PC12 cells at 1 uM after 24 hrs by hoechst 33342 and propidium iodide double staining based fluorescence analysis (reference value: 43.97 +/- 2.69%); assay type: functional
PC-12 [10] = assay: Neuroprotective activity against glutamate-induced apoptosis in rat PC12 cells after 24 hrs by hoechst 33342 and propidium iodide double staining based fluorescence analysis; assay type: functional, cell-based
[11] = Neuroprotective activity against glutamate-induced cell death in rat PC12 cells assessed as cell viability at 90 uM after 24 hrs by MTT assay; assay type: functional; conditions: PC-12, 24 h, read-out: Activity
PC-12 [12] = assay: Neuroprotective activity against glutamate-induced apoptosis in rat PC12 cells assessed as decrease in procaspase-3 level after 24 hrs by western blot analysis; assay type: functional, cell-based
PC-12 [13] = assay: as §1; assay type: functional
PC-12 [14] = assay: as §2; assay type: functional
PC-12 [15] = assay: as §3; assay type: functional

| Compound | viability at 0.1 µM [1] [%] | viability at 1 µM [2] [%] | viability at 10 µM [3] [%] | other results |
| --- | --- | --- | --- | --- |
| COc1ccc(C(c2ccc(OC)cc2)N2CCN(C(=O)COc3ccc4ccccc4c3)CC2)cc1 | 2.55 | 5.42 | 25.6 | – |
| CCOc1ccccc1CN1CCN(C(=O)COc2ccc3ccccc3c2)CC1 | 29.8 | 45.7 | 59.6 | Activity (PC-12 [4]): Dose-dependent effect; Activity (PC-12 [5]): Dose-dependent effect; Activity (PC-12 [6]): 16.21%; Activity (PC-12 [7]): inactive; Activity (PC-12 [8]): 35.09%; Activity (PC-12 [9]): 23.73%; Activity (PC-12 [10]): Dose-dependent effect |
| Cc1ccc(C(c2ccc(C)cc2)N2CCN(C(=O)COc3ccccc3C)CC2)cc1 | 3.24 | 4.24 | 11.3 | – |
| COc1ccc(/C=C/C(=O)N2CCN(C(c3ccc(F)cc3)c3ccc(F)cc3)CC2)cc1 | 71 | 49.7 | 77.8 | – |
| O=C(COc1ccc(Cl)cc1)N1CCN(C(c2ccc(Br)cc2)c2ccc(Br)cc2)CC1 | 4.22 | 8.01 | 16.7 | – |
| COc1ccc(OCC(=O)N2CCN(C(c3ccc(C)cc3)c3ccc(C)cc3)CC2)cc1 | 21.7 | 42.3 | 47.5 | – |
| CC1=NN(c2ccccc2)C(=O)C1 [EDARAVONE] | – | – | – | viability at 90 µM [11]: 33% |
| Cc1ccccc1OCC(=O)N1CCN(Cc2ccc(Br)cc2)CC1 | 10.2 | 22.1 | 20.8 | – |
| COC(=O)c1ccccc1CN1CCN(C(=O)COc2ccccc2C)CC1 | 6.39 | 9.55 | 25.1 | – |
| COC(=O)c1ccccc1CN1CCN(C(=O)COc2ccc3ccccc3c2)CC1 | 25.6 | 37.4 | 49.5 | Activity (PC-12 [4]): Dose-dependent effect; Activity (PC-12 [5]): Dose-dependent effect; Activity (PC-12 [6]): 21.81%; Activity (PC-12 [8]): 35.67%; Activity (PC-12 [9]): 29.27%; Activity (PC-12 [10]): Dose-dependent effect; Activity (PC-12 [12]): Dose-dependent effect |
| CCOc1ccccc1CN1CCN(C(=O)COc2ccccc2C)CC1 | 53.3 | 11.9 | 8.52 | – |
| COc1ccccc1OCC(=O)N1CCN(C(c2ccc(Br)cc2)c2ccc(Br)cc2)CC1 | 45.5 | 12.8 | 6.67 | – |
| COC(=O)c1ccccc1CN1CCN(C(=O)COc2ccc(Cl)cc2)CC1 | 39.9 | 5.15 | 6.36 | – |
| O=C(COc1ccc(Br)cc1)N1CCN(Cc2ccc(Br)cc2)CC1 | – | – | – | Activity (PC-12 [13]): inactive; Activity (PC-12 [14]): inactive; Activity (PC-12 [15]): inactive |
| Cc1ccccc1OCC(=O)N1CCN(C(c2ccc(Br)cc2)c2ccc(Br)cc2)CC1 | – | – | – | Activity (PC-12 [13]): inactive; Activity (PC-12 [14]): inactive; Activity (PC-12 [15]): inactive |
| Cc1ccccc1OCC(=O)N1CCN(C(c2ccc(F)cc2)c2ccc(F)cc2)CC1 | 7.92 | 8.7 | 57 | – |
| COC(=O)c1ccccc1CN1CCN(C(=O)COc2ccccc2OC)CC1 | 23.2 | 32.8 | 23.1 | – |

| Compound | viability at 0.1 µM [1] [%] | viability at 1 µM [2] [%] | viability at 10 µM [3] [%] | other results |
| --- | --- | --- | --- | --- |
| COc1ccc(OCC(=O)N2CCN(C(c3ccc(F)cc3)c3ccc(F)cc3)CC2)cc1 | 3.1 | 5.26 | 80.5 | – |
| COc1ccccc1OCC(=O)N1CCN(C(c2ccc(C)cc2)c2ccc(C)cc2)CC1 | – | – | – | Activity (PC-12 [13]): inactive; Activity (PC-12 [14]): inactive; Activity (PC-12 [15]): inactive |
| COc1ccc(C(c2ccc(OC)cc2)N2CCN(C(=O)COc3ccccc3C)CC2)cc1 | 2.45 | 3.75 | 21.2 | – |
| COc1ccc(OCC(=O)N2CCN(C(c3ccc(OC)cc3)c3ccc(OC)cc3)CC2)cc1 | 59.4 | 80.7 | 56.7 | – |
| O=C(COc1ccc(Br)cc1)N1CCN(C(c2ccc(Br)cc2)c2ccc(Br)cc2)CC1 | – | – | – | Activity (PC-12 [13]): inactive; Activity (PC-12 [14]): inactive; Activity (PC-12 [15]): inactive |
| Cc1ccc(C(c2ccc(C)cc2)N2CCN(C(=O)COc3ccc(Cl)cc3)CC2)cc1 | 5.81 | 9.14 | 9.2 | – |
| CCOc1ccc(CN2CCN(C(=O)COc3ccccc3C)CC2)cc1 | 35.3 | 30.6 | 28.9 | – |
| COC(=O)c1ccccc1CN1CCN(C(=O)COc2ccc(C)cc2)CC1 | – | – | – | Activity (PC-12 [13]): inactive; Activity (PC-12 [14]): inactive; Activity (PC-12 [15]): inactive |
| COc1ccccc1OCC(=O)N1CCN(Cc2ccc(Br)cc2)CC1 | 38 | 41 | 20.8 | – |
| COC(=O)c1ccccc1CN1CCN(C(=O)COc2ccc(Br)cc2)CC1 | – | – | – | Activity (PC-12 [13]): inactive; Activity (PC-12 [14]): inactive; Activity (PC-12 [15]): inactive |
| O=C(COc1ccc2ccccc2c1)N1CCN(C(c2ccc(F)cc2)c2ccc(F)cc2)CC1 | – | – | – | Activity (PC-12 [13]): inactive; Activity (PC-12 [14]): inactive; Activity (PC-12 [15]): inactive |
| COc1ccc(OCC(=O)N2CCN(C(c3ccc(Br)cc3)c3ccc(Br)cc3)CC2)cc1 | 3.52 | 7.06 | 50.3 | – |
| Cc1ccc(C(c2ccc(C)cc2)N2CCN(C(=O)COc3ccc4ccccc4c3)CC2)cc1 | 4.75 | 5.63 | 10.3 | – |
| COc1ccccc1OCC(=O)N1CCN(C(c2ccc(F)cc2)c2ccc(F)cc2)CC1 | 32 | 45.9 | 79.7 | Activity (PC-12 [4]): Dose-dependent effect; Activity (PC-12 [5]): Dose-dependent effect; Activity (PC-12 [6]): 19.18%; Activity (PC-12 [8]): 42.28%; Activity (PC-12 [9]): 31.04%; Activity (PC-12 [10]): Dose-dependent effect; Activity (PC-12 [12]): Dose-dependent effect |
| O=C(COc1ccc(Br)cc1)N1CCN(C(c2ccc(F)cc2)c2ccc(F)cc2)CC1 | 26.8 | 47.6 | 77.1 | Activity (PC-12 [4]): Dose-dependent effect; Activity (PC-12 [5]): Dose-dependent effect; Activity (PC-12 [6]): 24.65%; Activity (PC-12 [7]): inactive; Activity (PC-12 [8]): 41.83%; Activity (PC-12 [9]): 32.18%; Activity (PC-12 [10]): Dose-dependent effect |
| O=C(COc1ccc2ccccc2c1)N1CCN(C(c2ccc(Br)cc2)c2ccc(Br)cc2)CC1 | 4.06 | 7.87 | 30.2 | – |
| COC(=O)c1ccccc1CN1CCN(C(=O)COc2ccc(OC)cc2)CC1 | – | – | – | Activity (PC-12 [13]): inactive; Activity (PC-12 [14]): inactive; Activity (PC-12 [15]): inactive |
